In patent US20010020100A1, “N-substituted-1, 2, 4-triazolone compounds for treatment of cardiovascular disorders” (G.D. Searle & Co., priority 1994, published 2001):
Values joined by “and” are separate entries in the source; they are usually repeats but may differ in a detail not shown here. Equal entries are not always repeated.

Key:
[1] = biological target: smooth muscle angiotensin II receptor; experiment: Assay A: Angiotensin II Binding Activity (125I-AII displacement, rat uterine membrane preparation); conditions: 50% displacement of specifically bound 125I-AII, rat uterine membranes, 25° C., 60 min
Description: Compounds of the invention were tested for ability to bind to the smooth muscle angiotensin II receptor using a rat uterine membrane preparation. […] Rat uterine membranes were prepared from fresh tissue. All procedures were carried out at 4° C. Uteri were stripped of fat and homogenized in phosphate-buffered saline at pH 7.4 containing 5 mM EDTA. The homogenate was centrifuged at 1500×g for 20 min., and the supernatant was recentrifuged at 100,000×g for 60 min. The pellet was resuspended in buffer consisting of 2 mM EDTA and 50 mM Tris-HCl (pH 7.5) to a final protein concentration of 4 mg/ml. […] The reaction was initiated by the addition of membrane protein and the mixture was incubated at 25° C. for 60 min. The incubation was terminated with ice-cold 50 mM Tris-HCl (pH 7.5) and the mixture was filtered to separate membrane-bound labelled peptide from the free ligand. The incubation tube and filter were washed with ice-cold buffer. Filters were assayed for radioactivity in a Micromedic gamma counter. Nonspecific binding was defined as binding in the presence of 10 μM of unlabelled AII. Specific binding was calculated as total binding minus nonspecific binding. […] Binding data were analyzed by a nonlinear least-squares curve fitting program.

[2] = test system: rabbit aortic rings; experiment: Assay B: In Vitro Vascular Smooth Muscle Response for AII (antagonist activity in aortic rings); assay type: cell-based; conditions: antagonist at 10^-5 M, AII concentration-response curves, Schild calculation; aorta rings from two rabbits, two values per cell
Description: Assay B: In Vitro Vascular Smooth Muscle-Resionse for AII
The compounds of the invention were tested for antagonist activity in rabbit aortic rings. Male New Zealand white rabbits (2-2.5 kg) were sacrificed using an overdose of pentobarbital and exsanguinated via the carotid arteries. The thoracic aorta was removed, cleaned of adherent fat and connective tissue and then cut into 3-mm ring segments. The endothelium was removed from the rings by gently sliding a rolled-up piece of filter paper into the vessel lumen. The rings were then mounted in a water-jacketed tissue bath, maintained at 37° C., between moveable and fixed ends of a stainless steel wire with the moveable end attached to an FT03 Grass transducer coupled to a Model 7D Grass Polygraph for recording isometric force responses. The bath was filled with 20 ml of oxygenated (95% oxygen/5% carbon dioxide) Krebs solution of the following composition (nM) : 130 NaCl, 15 NaHCO3, 15 KCl, 1.2 NaH2PO4, 1.2 MgSO4, 2.5 CaCl2, and 11.4 glucose. […] Angiotensin II concentration-response curves were then recorded (3×10^−10 to 1×10^−5 M). […] The effectiveness of the test compound was expressed in terms of pA2 values and were calculated according to H. O. Schild [Br. J. Pharmacol. Chemother., 2,189-206 (1947)]. […] Each test antagonist was evaluated in aorta rings from two rabbits.

[3] = test system: AII pressor response; experiment: Assay C: In Vivo Intraduodenal Pressor Assay Response for AII Antagonists; design: species or system Sprague-Dawley rats; conditions: 30 mg/kg i.d., average of two rats; for Assay C Inhibition: inhibition of AII pressor response, anesthetized ganglion-blocked rats; for Assay C Duration: time from peak percent inhibition to 50% of peak
Description: Assay C: In Vivo Intraduodenal Pressor Assay Response for AII Antagonists
Male Sprague-Dawley rats weighing 225-300 grams were anesthetized with Inactin (100 mg/kg, i.p.) and catheters were implanted into the trachea, femoral artery, femoral vein and duodenum. Arterial pressure was recorded from the femoral artery catheter on a Gould chart recorder (Gould, Cleveland, OH). The femoral vein catheter was used for injections of angiotensin II, mecamylamine and atropine. The tracheal catheter allows for airway patency, and the duodenal catheter was used for intraduodenal (i.d.) administration of test compounds. After surgery, the rats were allowed to equilibrate for 30 minutes. Mecamylamine (3 mg/kg, 0.3 ml/kg) and atropine (400 ug/kg, 0.3 ml/kg) were then given i.v. to produce ganglion blockade. These compounds were administered every 90 minutes throughout the test procedure. Angiotensin II was given in bolus does i.v. (30 ng/kg in saline with 0.5% bovine serum albumin, 0.1 ml/kg) every 10 minutes three times or until the increase in arterial pressure produced was within 3 mmHg for two consecutive AII injections. The last two AII injections were averaged and were taken as the control AII pressor response. Ten minutes after the final control AII injection, the test compound (dissolved in sodium bicarbonate) was administered i.d. at a dose of 30 mg/kg in a volume of 0.2 ml. Angiotensin II injections were then given 5, 10, 20, 30, 45, 60, 75, 90, and 120 minutes after administration of the test compound and response of arterial pressure was monitored. The response to AII was calculated as percent of the control response and then the percent inhibition is calculated as 100 minus the percent control response. Duration of action of a test compound was defined as the time from peak percent inhibition to 50% of peak. One compound at one dose was tested in each rat. Each test compound was tested in two rats and the values for the two rats were averaged.

| IC50 [1] | SMILES | Assay B PA2 [2] | Assay C Inhibition [3] | Assay C Duration [3] |
| --- | --- | --- | --- | --- |
| 101 nM | CCCCc1nn(CCCC)c(=O)n1Cc1ccc(-c2ccccc2C(=O)O)cc1 [Example 1, 4′-[(1,3-dibutyl-4,5-dihydro-5-oxo-1H-1,2,4-triazol-4-yl)methyl] [1,1′-biphenyl]-2-carboxylic acid] | 7.3 and 6.7 | 93% | 60 to 100 min |
| 4.9 nM | CCCCc1nn(CCCC)c(=O)n1Cc1ccc(-c2ccccc2-c2nnn[nH]2)cc1 [Example 2, 2,5-dibutyl-2,4-dihydro-4-[[2-(1H-tetrazol-5-yl)[1,1′-biphenyl]-4′-yl]methyl]-3H-1,2.4-triazol-3-one] | 9.0 and 9.4 | 100% | >200 min |
